# In paper PMC7524759, “Solution structure of the Hop TPR2A domain and investigation of target druggability by NMR, biochemical and in silico approaches” (Scientific Reports, 2020):
# “Also recorded” adds a separate entry of the source. Read-outs that look alike come from different tables or passages of the source.
# What was measured:
# [1] = target: T1, Hop TPR2A-Hsp90 MEEVD interaction (Homo sapiens, UniProt P31948); test: LANCE (TR-FRET) proximity assay of Hop TPR2A binding to biotin-Hsp90 MEEVD peptide; conditions: for LE (ligand efficiency): approximated from LANCE IC50 values using number of heavy atoms
# T1 construct: The TPR2A domain of human Hop, residues 218-350, was cloned from full-length Hop cDNA; made in house; host or cells: Escherichia coli BL21 (DE3) pLysS
# T1 sequence (P31948 218-350): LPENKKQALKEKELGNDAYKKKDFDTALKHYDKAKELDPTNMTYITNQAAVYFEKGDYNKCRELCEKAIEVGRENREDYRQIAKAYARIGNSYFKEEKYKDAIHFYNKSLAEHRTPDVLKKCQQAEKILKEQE
# Protocol: Compounds containing succinic acid substructures were therefore selected to mimic the natural carboxylate clamp interaction between the Hsp90 C-terminus and TPR cochaperones. […] In this assay, compounds that block the protein-peptide interaction cause a loss in fluorescent signal.
# The labelling reagents used were Surelight APC-SA and LANCE Eu-1024 Anti-6xHis (both PerkinElmer). Assays were performed in black low volume 384-well plates (Corning) with a total volume of 20 μl per well in assay buffer of 20 mM HEPES pH 7.4, 100 mM NaCl, 1 mM DTT, 0.1% Tween-20. […] Compound stocks to be screened were individually corrected to approximately neutral pH due to their highly acidic nature and dispensed using a Labcyte Echo acoustic dispenser.
# Raw fluorescence or luminescence values from compound screening were converted to % inhibition of the total assay signal. IC50 values were determined by plotting % inhibition against the log10 of inhibitor concentration and fitted using a variable slope, four-parameter concentration–response curve using a robust fit in GraphPad Prism. […] To generate IC50 values, assays were repeated independently 3 times with duplicate or triplicate wells for each run. […] Ligand efficiency (LE) was approximated from LANCE biochemical IC50 values using the number of heavy atoms (HA)[67].
# Hop TPR2A = target: T2, Hop TPR2A (Homo sapiens, UniProt P31948); test: NMR 1H-15N HSQC chemical shift perturbation (CSP) titration; type: binding; conditions: for Kd: Mean ± S.D. for 10 fitted residues
# T2 construct: The TPR2A domain of human Hop, residues 218-350, was cloned from full-length Hop cDNA; 6xHis (N, cleaved yes); made in house; host or cells: Escherichia coli BL21 (DE3) pLysS
# T2 sequence (P31948 218-350): as above
# Protocol: Chemical shift perturbation (CSP) experiments were carried out on protein and compound mixtures to characterise protein–ligand interactions. ^1H-^15N HSQC spectra were collected on 200 μl samples in 20 mM Na2HPO4 pH 6.5, 50 mM NaCl, 1 mM DTT with 10% D2O in 3 mm NMR tubes (GPE Scientific). […] Each sample was prepared with 100 μM protein while compound or peptide concentration varied according to the experiment. Where possible, compound or peptide stocks were made up in NMR buffer to minimise buffer effects on the spectra. Compounds were otherwise diluted from DMSO stocks maintaining a maximum final DMSO concentration of 3% v/v. HSQC spectra of the protein with DMSO in the buffer were collected as controls. ^1H–^15N HSQC spectra were collected using standard pulse sequences.
# Changes in chemical shifts (∆δ) were calculated for each backbone assigned N–H peak using a weighted CSP[70]. In order to visualise the locations of the largest shifts the ∆δ values were edited into a Hop TPR2A PDB file (in place of B-factors) and represented as surface heat maps in PyMol. Kd values from CSP titrations were calculated from HSQC spectra collected at a series of increasing compound concentrations[58], plots are representative of one titration for several different residues.
# Chemical shift perturbation (CSP) experiments and Kd determination
# Changes in chemical shifts were determined by tracking ligand shifted HSQC peaks in
# NMRView and exporting the resultant peak lists to Excel. In Excel, using appropriate lists of
# control peaks the change in chemical shift (Dd) was calculated for each backbone assigned
# N-H peak using Equation S1.
# (Equation S1) Δδ = %Δ𝛿!! + (0.2Δ𝛿#) -
# Where Δ𝛿!! is the change in proton chemical shift, and Δ𝛿# is the change in nitrogen chemical
# shift. Using a scaling factor (0.2) normalises the difference in magnitude of chemical shifts at
# these two nuclei, various scaling factors are used in the literature and a value of 0.2 has been
# To estimate Kd values from CSP titrations HSQC spectra were collected at a series of
# increasing compound concentrations, peak lists for each concentration were generated and
# exported to Excel. Then using GraphPad Prism the Dd values for each concentration were
# fitted by non-linear regression to Equation S2, taken from Fielding 2007 equation 16 (see also
# Williamson 2013 equation 6 for the derivation).
# (Equation S2) Δ𝛿 = Δ𝛿&’( "[0]
# In which Δ𝛿 is the adjusted chemical shift change, Δ𝛿&’( is the chemical shift change at
# saturation, [𝑃]7 the total protein concentration, 𝐾8 the equilibrium dissociation constant, and
# [𝐿]7the total ligand concentration. Here the Δ𝛿&’( was taken to be the observed Δ𝛿 at the
# highest [𝐿]7. Except in cases where this was clearly far from saturation, when this variable
# was not constrained during the curve fit.
# Determining dissociation constants using CSP titrations requires that the experimental [P] is
# high enough that the signal to noise of the experiment is sufficient while falling into a suitable
# range for accurate curve fitting using equation S2.
# [2] = test system: FLAG-tagged Hsp90 complexes (TPR cochaperone association) from HCT116 cells; test: FLAG co-immunoprecipitation Western blot of Hsp90 complexes; type: biochemical, human
# Hsp90 (Homo sapiens) = test: ITC; conditions: cited from earlier work
# [3] = n = 3 independent experiments, duplicate wells, Mean ± S.D.
# Hop TPR2A (from UniProt P31948), sequence (P31948 223-352): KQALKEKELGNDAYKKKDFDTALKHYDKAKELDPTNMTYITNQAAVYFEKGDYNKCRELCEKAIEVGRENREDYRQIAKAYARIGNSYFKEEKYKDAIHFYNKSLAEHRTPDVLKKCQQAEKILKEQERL
Compound,LE (ligand efficiency) [1],"IC50 [1, 3] [µM]",Kd (Hop TPR2A) [µM],other results
"O=C(O)CCC(=O)O [Compound 1, succinic acid]",0.42,3960,–,IC50 [1]: ~4000 µM
O=C(O)/C=C\C(=O)O [Compound 2],0.47,2170,–,–
COc1ccc(C2c3[nH]c4ccccc4c3CC3C(=O)N(c4ccccc4C(=O)NC(CC(=O)O)C(=O)O)C(=O)N32)cc1 (stereo not shown) [Compound 7],0.13,74 ± 3.2,–,–
COc1cccc(C2c3[nH]c4ccccc4c3CC3C(=O)N(c4ccccc4C(=O)NCC(=O)O)C(=O)N32)c1 (stereo not shown) [Compound 8],0.13,311 ± 37,–,–
O=C(O)c1ccccc1N1C(=O)C2Cc3c([nH]c4ccccc34)C(c3ccccc3)N2C1=O (stereo not shown) [Compound 9],0.14,452 ± 14,1410,–
Cc1ccc(C2c3[nH]c4ccccc4c3CC3C(=O)N(c4ccccc4C(=O)O)C(=O)N32)cc1 (stereo not shown) [Compound 10],0.15,234 ± 75,729 ± 164,–
Cc1cccc(C2c3[nH]c4ccccc4c3CC3C(=O)N(c4ccccc4C(=O)O)C(=O)N32)c1 (stereo not shown) [Compound 11],0.17,80 ± 5.8,177 ± 13,"CSP ∆δ (Hop TPR2A; residue Arg305): 0.38 ppm; CSP ∆δ (Hop TPR2A; residue Asn264): 0.36 ppm; CSP ∆δ (Hop TPR2A; residue Asn308): 0.12 ppm; CSP ∆δ (Hop TPR2A; residue Lys301): 0.1 ppm; TPR cochaperone association with Hsp90 complexes ([2]; added to HCT116 cell lysate, N = 1, qualitative): not; TPR cochaperone association with Hsp90 complexes ([2]; added to purified Hsp90 complexes, N = 1, preliminary, qualitative): reduce TPR cochaperone association; also recorded: may disrupt binding of Hop and another TPR cochaperone, PP5"
Cc1ccccc1C1c2[nH]c3ccccc3c2CC2C(=O)N(c3ccccc3C(=O)O)C(=O)N21 (stereo not shown) [Compound 12],0.17,94 ± 6.4,352 ± 39,–
COc1cccc(C2c3[nH]c4ccccc4c3CC3C(=O)N(c4ccc(C(=O)O)cc4)C(=O)N32)c1 (stereo not shown) [Compound 13],0.12,1180,–,drop in LANCE activity compared to 11 ([1]; carboxylic acid at R2 moved from ortho to para): more than tenfold drop in activity
Hop TPR2A (from UniProt P31948),–,–,–,Kd (Hsp90 (Homo sapiens)): 11 µM
